Patent publication EP0414533A1, “Use of iodopropargyl esters of alpha-amino acid derivatives as antimicrobial agents” (ROHM AND HAAS COMPANY, priority 1989, dated 1991)
Counter-ions that a name gives are not always drawn. Like-named read-outs stand apart in the source and are kept apart here.

Experiments:
[1] = system: Escherichia coli (ECOL); assay: Minimum inhibitory concentration (MIC), broth two-fold serial dilution test; details: Escherichia coli, read-out: MIC (G-) ECOL, M9G (minimal salts media with glucose); Table IIIc, iodopropargyl esters of peptides
[2] = system: Botrytis cinerea (BOC); assay: In-vitro plant fungicide test; format: cell-based; details: Botrytis cinerea
[3] = system: Pythium ultimum (PYU); assay: In-vitro plant fungicide test; format: cell-based; details: Globisporangium ultimum
[4] = system: COL; assay: In-vitro plant fungicide test; format: cell-based; parameters: inhibition of growth: concentration or dose not given beside the values; details: Table IVb, read-out: % Control at (ppm) indicated COL
[5] = system: Septoria nodorum (SEP); assay: In-vitro plant fungicide test; format: cell-based; details: Parastagonospora nodorum
[6] = system: Pseudomonas fluorescens (PSFL); assay: Minimum inhibitory concentration (MIC), broth two-fold serial dilution test; details: Pseudomonas fluorescens, read-out: MIC (G-) PSFL, M9G (minimal salts media with glucose); Table IIIc, iodopropargyl esters of peptides
[7] = system: MON; assay: In-vitro plant fungicide test; format: cell-based; details: Table IVb, read-out: % Control at (ppm) indicated MON
[8] = system: Aspergillus niger (ANIG); assay: Minimum inhibitory concentration (MIC), broth two-fold serial dilution test; format: cell-based; details: Aspergillus niger, read-out: MIC (F) ANIG, M9G (minimal salts media with glucose); Table IIIc, iodopropargyl esters of peptides
[9] = system: THREE FUNGI; assay: MIC test against three fungi in Mycophile Broth, pH 5.0, read after 8 days (Table VII); format: cell-based; details: 192 h
[10] = system: Piricularia oryzae (PIR); assay: microbe, parasite or virus in culture; format: cell-based
[11] = system: Staphylococcus aureus (SAUR); assay: Minimum inhibitory concentration (MIC), broth two-fold serial dilution test; details: Staphylococcus aureus, read-out: MIC (G+) SAUR, M9G (minimal salts media with glucose); Table IIIc, iodopropargyl esters of peptides
Source text: When the test is ready to be done, each vessel in the dilution series, except the first vessel, contains an equal volume of compound free broth. The first vessel contains twice the volume of broth with the starting concentration of test compound. One half of the broth from the first vessel is transferred to the second vessel. After being mixed, one half the resulting volume is removed from the second vessel and transferred to the third vessel. The entire cycle is repeated sufficiently to give a series of concentrations amounting to 500, 250, 125, 63, 31, 16, 8, and 4 ppm (or 100, 50, 25, 12.5, 6.2, 3.1, 1.6, and 0.8), respectively.
Each vessel is then inoculated with a cell suspension of the appropriate test organism. Bacteria are grown in broth, fungi on agar slants for a time and at a temperature appropriate to the species being tested, and algae are a mixture of green algae and blue-green bacteria grown in a nutrient media. At the end of the growth period, in the case of bacteria, the broth is vortexed to disperse the cells.
The vessels are then incubated at the appropriate temperature. After the incubation, the vessels are examined for growth/no growth.

[12] = system: ALT; assay: In-vitro plant fungicide test; format: cell-based; parameters: inhibition of growth: concentration or dose not given beside the values; details: Table IVb, read-out: % Control at (ppm) indicated ALT
[13] = system: PSH; assay: In-vitro plant fungicide test; format: cell-based; details: Table IVb, read-out: % Control at (ppm) indicated PSH
[14] = system: Phytophthora capsici (PHY); assay: In-vitro plant fungicide test; format: cell-based; details: Phytophthora capsici

Q: Which MIC [1] does the source give for `C[C@H](N)C(=O)N[C@@H](COCc1ccccc1)C(=O)OCC#CI` [Compound 19, L-alanyl-O-benzyl-L-serine iodopropargyl ester trifluoroacetate] here?
A: 100 µg/mL

Q: What about the inhibition of growth at 1.5 ppm ([2]; 1.5 ppm, Table IVb, read-out: % Control at (ppm) indicated BOC) of the same compound?
A: 0%

Q: What about the inhibition of growth at 6 ppm ([2]; 6 ppm, Table IVb, read-out: % Control at (ppm) indicated BOC) of the same compound?
A: 0%

Q: And the inhibition of growth at 25 ppm ([2]; Table IVa, *=Phytotoxic, read-out: % Control at 25 ppm BOC)?
A: 0%

Q: What about the inhibition of growth at 25 ppm ([2]; Table IVb, read-out: % Control at (ppm) indicated BOC) of the same compound?
A: 90%

Q: And the inhibition of growth at 0.2 ppm ([2]; .2 ppm, Table IVb, read-out: % Control at (ppm) indicated BOC)?
A: 0%

Q: What about the inhibition of growth at 0.4 ppm ([2]; .4 ppm, Table IVb, read-out: % Control at (ppm) indicated BOC) of the same compound?
A: 0%

Q: And the inhibition of growth at 0.8 ppm ([2]; .8 ppm, Table IVb, read-out: % Control at (ppm) indicated BOC)?
A: 0%

Q: And the inhibition of growth at 1.5 ppm ([3]; 1.5 ppm, Table IVb, read-out: % Control at (ppm) indicated PYU)?
A: 0%

Q: What about the inhibition of growth at 6 ppm ([3]; 6 ppm, Table IVb, read-out: % Control at (ppm) indicated PYU) of the same compound?
A: 0%

Q: And the inhibition of growth at 25 ppm ([3]; Table IVa, read-out: % Control at 25 ppm PYU)?
A: 100%

Q: And the inhibition of growth at 25 ppm ([3]; Table IVb, read-out: % Control at (ppm) indicated PYU)?
A: 100%

Q: What about the inhibition of growth at 0.2 ppm ([3]; .2 ppm, Table IVb, read-out: % Control at (ppm) indicated PYU) of the same compound?
A: 0%

Q: What about the inhibition of growth at 0.4 ppm ([3]; .4 ppm, Table IVb, read-out: % Control at (ppm) indicated PYU) of the same compound?
A: 0%

Q: What about the inhibition of growth at 0.8 ppm ([3]; .8 ppm, Table IVb, read-out: % Control at (ppm) indicated PYU) of the same compound?
A: 0%

Q: What about the inhibition of growth at 1.5 ppm ([4]; 1.5 ppm) of the same compound?
A: 0%

Q: And the inhibition of growth at 3 ppm ([4]; 3 ppm)?
A: 0%

Q: And the inhibition of growth at 6 ppm ([4]; 6 ppm)?
A: 0%

Q: And the inhibition of growth at 0.2 ppm ([4]; .2 ppm)?
A: 0%

Q: And the inhibition of growth at 0.4 ppm ([4]; .4 ppm)?
A: 0%

Q: What about the inhibition of growth at 0.8 ppm ([4]; .8 ppm) of the same compound?
A: 0%

Q: And the inhibition of growth [4]?
A: 0%

Q: And the inhibition of growth at 1.5 ppm ([5]; 1.5 ppm, Table IVb, read-out: % Control at (ppm) indicated SEP)?
A: 50%

Q: And the inhibition of growth at 6 ppm ([5]; 6 ppm, Table IVb, read-out: % Control at (ppm) indicated SEP)?
A: 100%

Q: What about the inhibition of growth at 25 ppm ([5]; Table IVa, read-out: % Control at 25 ppm SEP) of the same compound?
A: 100%

Q: What about the inhibition of growth at 25 ppm ([5]; Table IVb, read-out: % Control at (ppm) indicated SEP) of the same compound?
A: 100%

Q: And the inhibition of growth at 0.2 ppm ([5]; .2 ppm, Table IVb, read-out: % Control at (ppm) indicated SEP)?
A: 0%

Q: And the inhibition of growth at 0.4 ppm ([5]; .4 ppm, Table IVb, read-out: % Control at (ppm) indicated SEP)?
A: 0%

Q: And the inhibition of growth at 0.8 ppm ([5]; .8 ppm, Table IVb, read-out: % Control at (ppm) indicated SEP)?
A: 0%

Q: And the MIC [6]?
A: 50 µg/mL

Q: What about the inhibition of growth at 1.5 ppm ([7]; 1.5 ppm) of the same compound?
A: 50%

Q: And the inhibition of growth at 6 ppm ([7]; 6 ppm)?
A: 100%

Q: And the inhibition of growth at 25 ppm ([7]; 25 ppm)?
A: 100%

Q: What about the inhibition of growth at 0.2 ppm ([7]; .2 ppm) of the same compound?
A: 0%

Q: And the inhibition of growth at 0.4 ppm ([7]; .4 ppm)?
A: 0%

Q: And the inhibition of growth at 0.8 ppm ([7]; .8 ppm)?
A: 0%

Q: And the MIC [8]?
A: < 0.8 µg/mL

Q: What about the MIC ([9]; Aspergillus niger, pH 5, read-out: MIC ANIG, Aspergillus niger, serial dilutions from 50 ppm, read after 8 days of incubation) of the same compound?
A: 50 µg/mL

Q: And the MIC ([9]; Aureobasidium pullulans, pH 5, read-out: MIC APUL, Aureobasidium pullulans, serial dilutions from 50 ppm, read after 8 days of incubation)?
A: 50 µg/mL

Q: And the MIC ([9]; Gloeophyllum trabeum, pH 5, read-out: MIC GTRA, Gloeophyllum trabeum, serial dilutions from 50 ppm, read after 8 days of incubation)?
A: 50 µg/mL

Q: What about the inhibition of growth at 1.5 ppm ([10]; 1.5 ppm, read-out: % Control at (ppm) indicated PIR) of the same compound?
A: 0%

Q: What about the inhibition of growth at 6 ppm ([10]; 6 ppm, read-out: % Control at (ppm) indicated PIR) of the same compound?
A: 0%

Q: What about the inhibition of growth at 25 ppm ([10]; 25 ppm, read-out: % Control at (ppm) indicated PIR) of the same compound?
A: 100%

Q: And the inhibition of growth at 0.2 ppm ([10]; .2 ppm, read-out: % Control at (ppm) indicated PIR)?
A: 0%

Q: What about the inhibition of growth at 0.4 ppm ([10]; .4 ppm, read-out: % Control at (ppm) indicated PIR) of the same compound?
A: 0%

Q: What about the inhibition of growth at 0.8 ppm ([10]; .8 ppm, read-out: % Control at (ppm) indicated PIR) of the same compound?
A: 0%

Q: And the inhibition of growth at 25 ppm ([10]; read-out: % Control at 25 ppm PIR)?
A: 100%

Q: And the MIC [11]?
A: 100 µg/mL

Q: What about the inhibition of growth at 1.5 ppm ([12]; 1.5 ppm) of the same compound?
A: 0%

Q: What about the inhibition of growth at 3 ppm ([12]; 3 ppm) of the same compound?
A: 50%

Q: What about the inhibition of growth at 6 ppm ([12]; 6 ppm) of the same compound?
A: 75%

Q: What about the inhibition of growth at 25 ppm ([12]; 25 ppm) of the same compound?
A: 100%

Q: And the inhibition of growth at 0.2 ppm ([12]; .2 ppm)?
A: 0%

Q: What about the inhibition of growth at 0.4 ppm ([12]; .4 ppm) of the same compound?
A: 0%

Q: And the inhibition of growth at 0.8 ppm ([12]; .8 ppm)?
A: 0%

Q: What about the inhibition of growth [12] of the same compound?
A: 100%

Q: What about the inhibition of growth at 1.5 ppm ([13]; 1.5 ppm) of the same compound?
A: 50%

Q: And the inhibition of growth at 6 ppm ([13]; 6 ppm)?
A: 100%

Q: What about the inhibition of growth at 0.2 ppm ([13]; .2 ppm) of the same compound?
A: 0%

Q: And the inhibition of growth at 0.4 ppm ([13]; .4 ppm)?
A: 0%

Q: What about the inhibition of growth at 0.8 ppm ([13]; .8 ppm) of the same compound?
A: 0%

Q: What about the inhibition of growth at 1.5 ppm ([14]; 1.5 ppm, Table IVb, read-out: % Control at (ppm) indicated PHY) of the same compound?
A: 0%

Q: What about the inhibition of growth at 6 ppm ([14]; 6 ppm, Table IVb, read-out: % Control at (ppm) indicated PHY) of the same compound?
A: 0%

Q: What about the inhibition of growth at 25 ppm ([14]; Table IVa, read-out: % Control at 25 ppm PHY) of the same compound?
A: 100%

Q: And the inhibition of growth at 25 ppm ([14]; Table IVb, read-out: % Control at (ppm) indicated PHY)?
A: 100%

Q: And the inhibition of growth at 0.2 ppm ([14]; .2 ppm, Table IVb, read-out: % Control at (ppm) indicated PHY)?
A: 0%

Q: What about the inhibition of growth at 0.4 ppm ([14]; .4 ppm, Table IVb, read-out: % Control at (ppm) indicated PHY) of the same compound?
A: 0%

Q: What about the inhibition of growth at 0.8 ppm ([14]; .8 ppm, Table IVb, read-out: % Control at (ppm) indicated PHY) of the same compound?
A: 0%
